Results on one compound are retold here after patent publication US9526254B2, “Pesticide and repellant” (ECOSPRAY LIMITED, priority 2005, dated 2016).

Each structure is given as a SMILES string.

This assay has as its system cabbage root fly. Kind of assay: Swede field trials in Norway, cabbage root fly damage (four sites). It is filed as in vivo. The procedure: An extensive program of non-public field trials, which included five crops of swede were carried out. The field trials design was based around multiple applications of either ECOguard® liquid (garlic juice concentrate) or granules (wood flour granules impregnated with the garlic juice concentrate) and in four out of the five swede trials was referenced against Dimethoate as a standard.

`CNC(=O)CSP(=S)(OC)OC` [Dimethoate]: under “in vivo”, the “Combined root damage index (RDI), % Change” value was −5.8%; the “Combined root damage index (RDI), Ga-Fa” value is listed as 65.78; the “Combined root damage index (RDI), Mid-Troms” value is 40.60; the “Combined root damage index (RDI), Sor Ost” value is on record as 24.92. For the setting “in vivo”, the “Combined root damage index (RDI), Toten” value came out at 44.33; the “Difference of Means (trt 1 control subtracted from trt), cabbage root fly damage” value is reported as −0.3100; the “cabbage root fly damage, statistical analysis” value is on record as “significantly reduced damage”. For the same compound, for the setting “mean of four sites versus control”, the “mean saleable yield (cat 1 + 2), % Change” value was “+8%”.
